Key:
Experiment in all cases: relative viability (nuclei count vs DMSO), 5 days (fraction); higher = more cells survive
NCI-H2228 = tested on: NCI-H2228
In short: (§1)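 Lung cancer cell lines in 1536-well plates got either a single drug or a fixed anchor-drug dose together with five library-drug doses (not always all listed) in √10 steps, by pin tool, on the day after seeding. Nuclei were counted after 5 days, and relative viability is the treated-to-vehicle ratio of nuclei counts. Values are medians of duplicate plates.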

NCI-H650 = tested on: NCI-H650
In short: as §1

NCI-H1734 = tested on: NCI-H1734
In short: as §1

PC-3 [JPC-3] = tested on: PC-3 [JPC-3]
In short: as §1

RERF-LC-KJ = tested on: RERF-LC-KJ
In short: as §1

NCI-H1792 = tested on: NCI-H1792
In short: as §1

EPLC-272H = tested on: EPLC-272H
In short: as §1

201T = tested on: 201T
In short: as §1

LCLC-97TM1 = tested on: LCLC-97TM1
In short: as §1

NCI-H661 = tested on: NCI-H661
In short: as §1

NCI-H1915 = tested on: NCI-H1915
In short: as §1

SK-MES-1 = tested on: SK-MES-1
In short: as §1

NCI-H1355 = tested on: NCI-H1355
In short: as §1

LCLC-103H = tested on: LCLC-103H
In short: as §1

NCI-H1651 = tested on: NCI-H1651
In short: as §1

NCI-H460 = tested on: NCI-H460
In short: as §1

HCC-78 = tested on: HCC-78
In short: as §1

SW 1573 = tested on: SW 1573
In short: as §1

NCI-H596 = tested on: NCI-H596
In short: as §1

LOU-NH91 = tested on: LOU-NH91
In short: as §1

NCI-H1993 = tested on: NCI-H1993
In short: as §1

NCI-H1793 = tested on: NCI-H1793
In short: as §1

For Oc1nc(-c2ccc(C(F)(F)F)cc2)nc2c1CSCC2 [XAV939] + CC(=O)Nc1cccc(-n2c(=O)n(C3CC3)c(=O)c3c(Nc4ccc(I)cc4F)n(C)c(=O)c(C)c32)c1 [Trametinib] (partner 0.02 µM), the relative viability (NCI-H2228; first compound 0.08 µM) was 0.429, the relative viability (NCI-H2228; first compound 0.253 µM) was 0.488 and the relative viability (NCI-H2228; first compound 0.8 µM) was 0.541. It also gave a relative viability (NCI-H2228; first compound 2.53 µM) of 0.571, a relative viability (NCI-H650; first compound 0.08 µM) of 1.08 and a relative viability (NCI-H650; first compound 0.253 µM) of 1.05. It also gave a relative viability (NCI-H650; first compound 0.8 µM) of 1, a relative viability (NCI-H650; first compound 2.53 µM) of 0.92 and a relative viability (NCI-H1734; first compound 0.08 µM) of 0.77. For the same molecule, the relative viability (NCI-H1734; first compound 0.253 µM) was 0.616, the relative viability (NCI-H1734; first compound 0.8 µM) was 0.593 and the relative viability (NCI-H1734; first compound 2.53 µM) was 0.647. The relative viability (PC-3 [JPC-3]; first compound 0.253 µM) was 0.613, the relative viability (PC-3 [JPC-3]; first compound 0.8 µM) was 0.722 and the relative viability (PC-3 [JPC-3]; first compound 2.53 µM) was 0.677. For the same molecule, the relative viability (RERF-LC-KJ; first compound 0.08 µM) was 0.859, the relative viability (RERF-LC-KJ; first compound 0.253 µM) was 0.733 and the relative viability (RERF-LC-KJ; first compound 0.8 µM) was 0.768. For the same molecule, the relative viability (RERF-LC-KJ; first compound 2.53 µM) was 0.603, the relative viability (NCI-H1792; first compound 0.08 µM) was 0.492 and the relative viability (NCI-H1792; first compound 0.253 µM) was 0.473. The relative viability (NCI-H1792; first compound 0.8 µM) was 0.448, the relative viability (NCI-H1792; first compound 2.53 µM) was 0.391 and the relative viability (EPLC-272H; first compound 0.08 µM) was 0.29. For the same molecule, the relative viability (EPLC-272H; first compound 0.253 µM) was 0.251, the relative viability (EPLC-272H; first compound 0.8 µM) was 0.274 and the relative viability (EPLC-272H; first compound 2.53 µM) was 0.23. It also gave a relative viability (201T; first compound 0.08 µM) of 0.78, a relative viability (201T; first compound 0.253 µM) of 0.648 and a relative viability (201T; first compound 0.8 µM) of 0.685. The relative viability (201T; first compound 2.53 µM) was 0.569, the relative viability (LCLC-97TM1; first compound 0.08 µM) was 0.213 and the relative viability (LCLC-97TM1; first compound 0.253 µM) was 0.199. For the same molecule, the relative viability (LCLC-97TM1; first compound 2.53 µM) was 0.161, the relative viability (NCI-H661; first compound 0.08 µM) was 0.617 and the relative viability (NCI-H661; first compound 0.253 µM) was 0.538. It also gave a relative viability (NCI-H661; first compound 0.8 µM) of 0.543, a relative viability (NCI-H661; first compound 2.53 µM) of 0.568 and a relative viability (NCI-H1915; first compound 0.08 µM) of 0.359. The relative viability (NCI-H1915; first compound 0.253 µM) was 0.296, the relative viability (NCI-H1915; first compound 0.8 µM) was 0.276 and the relative viability (NCI-H1915; first compound 2.53 µM) was 0.294. It also gave a relative viability (SK-MES-1; first compound 0.08 µM) of 0.554, a relative viability (SK-MES-1; first compound 0.253 µM) of 0.5 and a relative viability (SK-MES-1; first compound 0.8 µM) of 0.489. For the same molecule, the relative viability (SK-MES-1; first compound 2.53 µM) was 0.459, the relative viability (NCI-H1355; first compound 0.08 µM) was 0.367 and the relative viability (NCI-H1355; first compound 0.253 µM) was 0.336. It also gave a relative viability (NCI-H1355; first compound 0.8 µM) of 0.38, a relative viability (NCI-H1355; first compound 2.53 µM) of 0.291 and a relative viability (LCLC-103H; first compound 0.08 µM) of 0.704. The relative viability (LCLC-103H; first compound 0.253 µM) was 0.641, the relative viability (LCLC-103H; first compound 0.8 µM) was 0.672 and the relative viability (LCLC-103H; first compound 2.53 µM) was 0.676. The relative viability (NCI-H1651; first compound 0.08 µM) was 0.821, the relative viability (NCI-H1651; first compound 0.253 µM) was 0.724 and the relative viability (NCI-H1651; first compound 0.8 µM) was 0.825. It also gave a relative viability (NCI-H1651; first compound 2.53 µM) of 0.816, a relative viability (NCI-H460; first compound 0.08 µM) of 0.164 and a relative viability (NCI-H460; first compound 0.253 µM) of 0.0959. It also gave a relative viability (NCI-H460; first compound 0.8 µM) of 0.124, a relative viability (NCI-H460; first compound 2.53 µM) of 0.111 and a relative viability (HCC-78; first compound 0.08 µM) of 0.827. For the same molecule, the relative viability (HCC-78; first compound 0.253 µM) was 0.642, the relative viability (HCC-78; first compound 0.8 µM) was 0.842 and the relative viability (HCC-78; first compound 2.53 µM) was 0.535. It also gave a relative viability (SW 1573; first compound 0.08 µM) of 0.63, a relative viability (SW 1573; first compound 0.253 µM) of 0.545 and a relative viability (SW 1573; first compound 0.8 µM) of 0.608. The relative viability (SW 1573; first compound 2.53 µM) was 0.425, the relative viability (NCI-H596; first compound 0.08 µM) was 0.974 and the relative viability (NCI-H596; first compound 0.253 µM) was 0.775. The relative viability (NCI-H596; first compound 0.8 µM) was 0.75, the relative viability (NCI-H596; first compound 2.53 µM) was 0.657 and the relative viability (LOU-NH91; first compound 0.08 µM) was 0.811. The relative viability (LOU-NH91; first compound 0.253 µM) was 0.769, the relative viability (LOU-NH91; first compound 0.8 µM) was 0.745 and the relative viability (LOU-NH91; first compound 2.53 µM) was 0.742. It also gave a relative viability (NCI-H1993; first compound 0.08 µM) of 0.541, a relative viability (NCI-H1993; first compound 0.253 µM) of 0.488 and a relative viability (NCI-H1993; first compound 0.8 µM) of 0.411. For the same molecule, the relative viability (NCI-H1993; first compound 2.53 µM) was 0.449, the relative viability (NCI-H1793; first compound 0.08 µM) was 0.576 and the relative viability (NCI-H1793; first compound 0.253 µM) was 0.381. The relative viability (NCI-H1793; first compound 0.8 µM) was 0.381 and the relative viability (NCI-H1793; first compound 2.53 µM) was 0.353.

From the supplement of paper PMC10307832
